US20100160369A1, “S1P1 Agonists and Methods of Making And Using” (EXELIXIS, INC., priority 2008, published 2010)
Structures can show the parent of a compound that is named as a salt.

Each molecule was assayed against T1, S1P1 (Homo sapiens, UniProt P21453) (assay: Tango β-arrestin Recruitment Assay in U2OS cells (Assay 2b)). Details: Tango β-arrestin Recruitment Assay, footnote 1: Relative EC50 was measured, read-out: Assay 2b relative EC50.
Format: cell-based
Set-up: linker with TEV protease (N1a) cleavage site (C)
Text: For the Tango™ β-arrestin recruitment assay, the cytoplasmic C-terminus of S1P1 is tethered to the tTA transcriptional activator with a linker that contains a cleavage site for the N1a protease from tobacco etch virus (TEV protease). The C-terminus of the human β-arrestin2 protein is fused to TEV protease. Binding of an agonist recruits the β-arrestin-TEV fusion protein to the receptor resulting in cleavage of the linker and release of tTA to enter the nucleus and subsequently activate a tTA-dependent luciferase reporter gene.
Alternatively, U2OS cells expressing the reporter gene and S1P1 (Invitrogen) were added to the wells of a 384-well white opaque bottom assay plate (PerkinElmer) at […] per well. The cells were serum starved for 48 h in Freestyle medium (Invitrogen). Test compounds were tested at maximum concentrations of 1 μM for the agonist assay. Compounds were diluted in DMSO (10 concentration points, 3-fold each) and added to the assay plate at a 1% final DMSO concentration. The efficacy control was 1 μM S1P (Avanti). For each compound, there were duplicate assay plates and each assay plate had duplicate wells per concentration point. The plate was incubated overnight at 37° C. The GeneBLAzer β-lactamase assay reagent (Invitrogen) was added and the plates were incubated for an additional 2 h at room temperature. Fluorescence was measured using an EnVision plate reader (PerkinElmer, Waltham, Mass.) at an excitation wavelength of 409 nm and emission wavelengths of 460 nm and 530 nm. The emission intensity at each wavelength was background subtracted against wells containing medium only and the F460 nm/F530 nm ratio determined for each concentration of the test compounds. Percent activity was calculated as [(test compound ratio−DMSO ratio)/(positive control ratio−DMSO ratio)*100], where the positive control and DMSO ratios are from cells incubated with the efficacy control 1 μM S1P and 1% DMSO, respectively. The percent activities were plotted against compound concentration to determine EC50 using XLFit (IDBS).
Assay 1 is the CNG cAMP Assay as described in Biological Example 1. Assay 2a and 2b are the Tango™ β-arrestin Recruitment Assay in HEK293 and U2OS cells, respectively, as described in Biological Example 2. Assay 3a is the hS1P1R GTPγS Binding Assay as described in Biological Example 3. Assay 3b is the GTP-Eu Binding Assay as described in Biological Example 3. EC50's were measured unless otherwise noted. […] In the table, “nt” means the Compound was not tested and “no” means the compound was tested but had no measurable activity under the assay conditions employed.
Target sequence in this assay (P21453 whole entry): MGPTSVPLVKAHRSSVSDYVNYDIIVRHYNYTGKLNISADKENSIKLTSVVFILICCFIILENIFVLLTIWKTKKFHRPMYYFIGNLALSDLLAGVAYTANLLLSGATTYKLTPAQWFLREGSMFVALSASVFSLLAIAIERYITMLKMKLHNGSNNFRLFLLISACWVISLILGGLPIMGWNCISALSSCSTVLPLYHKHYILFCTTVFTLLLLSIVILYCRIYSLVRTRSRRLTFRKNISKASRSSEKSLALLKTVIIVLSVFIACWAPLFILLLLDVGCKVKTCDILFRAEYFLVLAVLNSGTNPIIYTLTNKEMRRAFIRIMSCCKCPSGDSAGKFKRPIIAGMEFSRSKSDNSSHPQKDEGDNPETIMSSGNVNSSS
Target sequence in this assay (P32121 whole entry partner): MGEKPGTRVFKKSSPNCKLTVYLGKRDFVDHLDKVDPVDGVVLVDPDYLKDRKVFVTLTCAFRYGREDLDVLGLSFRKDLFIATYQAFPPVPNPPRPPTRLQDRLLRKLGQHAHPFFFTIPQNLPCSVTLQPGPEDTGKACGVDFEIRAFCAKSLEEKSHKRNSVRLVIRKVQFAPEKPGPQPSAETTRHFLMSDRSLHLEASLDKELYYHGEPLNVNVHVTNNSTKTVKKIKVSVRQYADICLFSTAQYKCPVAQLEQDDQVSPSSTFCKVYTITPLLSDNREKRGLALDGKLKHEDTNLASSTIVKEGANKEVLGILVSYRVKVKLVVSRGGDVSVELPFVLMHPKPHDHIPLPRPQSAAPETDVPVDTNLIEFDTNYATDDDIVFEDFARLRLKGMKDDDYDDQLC
With `COC(=O)C(C)(O)COc1cc(Cl)c(-c2noc(-c3cn4cc(C(F)(F)F)cc(Cl)c4n3)n2)cc1Cl` (centres unmarked) [Example 319, methyl 3-[(2,5-dichloro-4-{5-[8-chloro-6-(trifluoromethyl)imidazo[1,2-a]pyridin-2-yl]-1,2,4-oxadiazol-3-yl}phenyl)oxy]-2-hydroxy-2-methylpropanoate] the EC50 was 100 to 500 nM.
`CS(=O)(=O)CCOc1cc(Cl)c(-c2noc(-c3cn4cc(C(F)(F)F)cc(Cl)c4n3)n2)cc1Cl` [Example 333, 8-chloro-2-[3-(2,5-dichloro-4-{[2-(methylsulfonyl)ethyl]oxy}phenyl)-1,2,4-oxadiazol-5-yl]-6-(trifluoromethyl)imidazo[1,2-a]pyridine] was tested, and the EC50 was 100 to 500 nM.
With `CC(N)COc1cc(Cl)c(-c2nnc(-c3cn4cc(C(F)(F)F)ccc4n3)s2)cc1Cl` (centres unmarked) [Example 340, 1-[(2,5-dichloro-4-{5-[6-(trifluoromethyl)imidazo[1,2-a]pyridin-2-yl]-1,3,4-thiadiazol-2-yl}phenyl)oxy]propan-2-amine] the EC50 was 5000 to 10000 nM.
With `COc1cc(Cl)c(-c2noc(-c3cn4cc(C(F)(F)F)cc(Cl)c4n3)n2)cc1Cl` [Example 341] the EC50 was 500 to 1000 nM.

Same assay, conditions: Tango β-arrestin Recruitment Assay, read-out: Assay 2b EC50
With `Oc1cc(Cl)c(-c2nnc(-c3cn4cc(C(F)(F)F)cc(Cl)c4n3)s2)cc1Cl` [Example 224, 2,5-dichloro-4-{5-[8-chloro-6-(trifluoromethyl)imidazo[1,2-a]pyridin-2-yl]-1,3,4-thiadiazol-2-yl}phenol] the EC50 was 100 to 500 nM.
For `CC(CO)Oc1cc(Cl)c(-c2nc(-c3cn4cc(C(F)(F)F)cc(Cl)c4n3)no2)cc1Cl` (centres unmarked) [Example 227, 2-[(2,5-dichloro-4-{3-[8-chloro-6-(trifluoromethyl)imidazo[1,2-a]pyridin-2-yl]-1,2,4-oxadiazol-5-yl}phenyl)oxy]propan-1-ol], the EC50 was no more than 100 nM.
`OCC(F)(F)COc1cc(Cl)c(-c2noc(-c3cn4cc(C(F)(F)F)cc(Cl)c4n3)n2)cc1Cl` [Example 311, 3-[(2,5-dichloro-4-{5-[8-chloro-6-(trifluoromethyl)imidazo[1,2-a]pyridin-2-yl]-1,2,4-oxadiazol-3-yl}phenyl)oxy]-2,2-difluoropropan-1-ol] was tested, and the EC50 was no more than 100 nM.
`CC(O)COc1cc(Cl)c(-c2noc(-c3cn4cc(C(F)(F)F)cc(Br)c4n3)n2)cc1Cl` (centres unmarked) [Example 316, 1-[(4-{5-[8-bromo-6-(trifluoromethyl)imidazo[1,2-a]pyridin-2-yl]-1,2,4-oxadiazol-3-yl}-2,5-dichlorophenyl)oxy]propan-2-ol] showed an EC50 of no more than 100 nM.
For `COCC(O)COc1cc(Cl)c(-c2noc(-c3cn4cc(C(F)(F)F)cc(Cl)c4n3)n2)cc1Cl` (centres unmarked) [Example 318, 1-[(2,5-dichloro-4-{5-[8-chloro-6-(trifluoromethyl)imidazo[1,2-a]pyridin-2-yl]-1,2,4-oxadiazol-3-yl}phenyl)oxy]-3-(methyloxy)propan-2-ol], the EC50 was no more than 100 nM.
`O=C(O)C1CC1c1cc(Cl)c(-c2nnc(-c3cn4cc(C(F)(F)F)cc(Cl)c4n3)s2)cc1Cl` (centres unmarked) [Example 320, 2-(2,5-dichloro-4-{5-[8-chloro-6-(trifluoromethyl)imidazo[1,2-a]pyridin-2-yl]-1,3,4-thiadiazol-2-yl}phenyl)cyclopropanecarboxylic acid] gave an EC50 of no more than 100 nM.
For `CC(O)CNc1cc(Cl)c(-c2noc(-c3cn4cc(C(F)(F)F)cc(Cl)c4n3)n2)cc1Cl` (centres unmarked) [Example 323, 1-[(2,5-dichloro-4-{5-[8-chloro-6-(trifluoromethyl)imidazo[1,2-a]pyridin-2-yl]-1,2,4-oxadiazol-3-yl}phenyl)amino]propan-2-ol], the EC50 was no more than 100 nM.
`C[C@@H](COc1cc(Cl)c(-c2noc(-c3cn4cc(C(F)(F)F)cc(Br)c4n3)n2)cc1Cl)OP(=O)(O)O` [Example 325, (1S)-2-[(4-{5-[8-bromo-6-(trifluoromethyl)imidazo[1,2-a]pyridin-2-yl]-1,2,4-oxadiazol-3-yl}-2,5-dichlorophenyl)oxy]-1-methylethyl dihydrogen phosphate] was tested, and the EC50 was no more than 100 nM.
In the case of `CC(O)(COc1cc(Cl)c(-c2noc(-c3cn4cc(C(F)(F)F)cc(Cl)c4n3)n2)cc1Cl)C(=O)O` (centres unmarked) [Example 327, 3-[(2,5-dichloro-4-{5-[8-chloro-6-(trifluoromethyl)imidazo[1,2-a]pyridin-2-yl]-1,2,4-oxadiazol-3-yl}phenyl)oxy]-2-hydroxy-2-methylpropanoic acid], the EC50 is reported as no more than 100 nM.
`C[C@H](COc1cc(Cl)c(-c2noc(-c3cn4cc(C(F)(F)F)cc(Cl)c4n3)n2)cc1Cl)OP(=O)(O)O` [Example 328, (1R)-2-[(2,5-dichloro-4-{5-[8-chloro-6-(trifluoromethyl)imidazo[1,2-a]pyridin-2-yl]-1,2,4-oxadiazol-3-yl}phenyl)oxy]-1-methylethyl dihydrogen phosphate] gave an EC50 of no more than 100 nM.
`Cc1cc(CCC(=O)O)c(Cl)cc1-c1nc(-c2cn3cc(C(F)(F)F)cc(Cl)c3n2)no1` [Example 329, 3-(2-chloro-4-{3-[8-chloro-6-(trifluoromethyl)imidazo[1,2-a]pyridin-2-yl]-1,2,4-oxadiazol-5-yl}-5-methylphenyl)propanoic acid] gave an EC50 of no more than 100 nM.
With `C[C@H](COc1cc(Cl)c(-c2noc(-c3cn4cc(C(F)(F)F)cc(Cl)c4n3)n2)cc1Cl)OS(=O)(=O)O` [Example 331, (1R)-2-[(2,5-dichloro-4-{5-[8-chloro-6-(trifluoromethyl)imidazo[1,2-a]pyridin-2-yl]-1,2,4-oxadiazol-3-yl}phenyl)oxy]-1-methylethyl hydrogen sulfate] the EC50 was no more than 100 nM.
`CS(=O)(=O)NCc1ccc(-c2nnc(-c3cn4cc(C(F)(F)F)cc(Cl)c4n3)s2)c(Cl)c1` [Example 332, N-[(3-chloro-4-{5-[8-chloro-6-(trifluoromethyl)imidazo[1,2-a]pyridin-2-yl]-1,3,4-thiadiazol-2-yl}phenyl)methyl]methanesulfonamide] gave an EC50 of no more than 100 nM.
`N[C@@H](CO)COc1cc(Cl)c(-c2nnc(-c3cn4cc(C(F)(F)F)cc(Cl)c4n3)s2)cc1F` [Example 335, (2S)-2-Amino-3-[(5-chloro-4-{5-[8-chloro-6-(trifluoromethyl)imidazo[1,2-a]pyridin-2-yl]-1,3,4-thiadiazol-2-yl}-2-fluorophenyl)oxy]propan-1-ol] was tested, and the EC50 was no more than 100 nM.
In the case of `NCC(O)COc1cc(Cl)c(-c2nnc(-c3cn4cc(C(F)(F)F)cc(Cl)c4n3)s2)cc1Cl` (centres unmarked) [Example 336, 1-amino-3-[(2,5-dichloro-4-{5-[8-chloro-6-(trifluoromethyl)imidazo[1,2-a]pyridin-2-yl]-1,3,4-thiadiazol-2-yl}phenyl)oxy]propan-2-ol], the EC50 is reported as no more than 100 nM.
In the case of `Nc1cc(Cl)c(-c2noc(-c3cn4cc(C(F)(F)F)cc(Cl)c4n3)n2)cc1Cl` [Example 337, 2,5-dichloro-4-{5-[8-chloro-6-(trifluoromethyl)imidazo[1,2-a]pyridin-2-yl]-1,2,4-oxadiazol-3-yl}aniline], the EC50 is reported as 100 to 500 nM.
With `Oc1cc(Cl)c(-c2nnc(-c3cn4cc(C(F)(F)F)cc(Cl)c4n3)s2)cc1F` [Example 338, 5-chloro-4-{5-[8-chloro-6-(trifluoromethyl)imidazo[1,2-a]pyridin-2-yl]-1,3,4-thiadiazol-2-yl}-2-fluorophenol] the EC50 was 100 to 500 nM.
Molecule `NC(CO)COc1cc(Cl)c(-c2nnc(-c3cn4cc(Br)ccc4n3)s2)cc1F` (centres unmarked) [Example 339, 2-amino-3-({4-[5-(6-bromoimidazo[1,2-a]pyridin-2-yl)-1,3,4-thiadiazol-2-yl]-5-chloro-2-fluorophenyl}oxy)propan-1-ol] has an EC50 of no more than 100 nM.
With `N[C@H](CO)COc1cc(Cl)c(-c2nnc(-c3cn4cc(C(F)(F)F)cc(Cl)c4n3)s2)cc1Cl` [Example 420, (2R)-2-amino-3-[(2,5-dichloro-4-{5-[8-chloro-6-(trifluoromethyl)imidazo[1,2-a]pyridin-2-yl]-1,3,4-thiadiazol-2-yl}phenyl)oxy]propan-1-ol] the EC50 was 100 to 500 nM.
For `NC(CO)COc1cc(Cl)c(-c2nnc(-c3cn4ccc(C(F)(F)F)cc4n3)s2)cc1F` (centres unmarked) [Example 421, 2-amino-3-[(5-chloro-2-fluoro-4-{5-[7-(trifluoromethyl)imidazo[1,2-a]pyridin-2-yl]-1,3,4-thiadiazol-2-yl}phenyl)oxy]propan-1-ol], the EC50 was 100 to 500 nM.

These molecules were tested against T1, S1P1 (assay: CNG cAMP Assay (Assay 1)). Details: read-out: Assay 1 EC50.
Format: cell-based
Set-up: host or cells: HEK293 cells expressing the CNG channel
In short: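 cAMP-gated CNG membrane-potential read-out (350/590 nm, T90/T0 ratio) in S1P1/CNG HEK293 cells after 90 min with compound plus NECA 500 nM, S1P 10 nM (EC95), Ro 20-1724 25 μM. Ten 3-fold points from 10 μM, 1.8% DMSO; percent activity vs NECA-only control gives EC50.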
Target sequence in this assay (P21453 whole entry): as the sequence (P21453 whole entry) above
Work on `Oc1cc(Cl)c(-c2nnc(-c3cn4cc(C(F)(F)F)cc(Cl)c4n3)s2)cc1Cl` [Example 224, 2,5-dichloro-4-{5-[8-chloro-6-(trifluoromethyl)imidazo[1,2-a]pyridin-2-yl]-1,3,4-thiadiazol-2-yl}phenol] yielded an EC50 of no more than 100 nM.
Work on `CC(CO)Oc1cc(Cl)c(-c2nc(-c3cn4cc(C(F)(F)F)cc(Cl)c4n3)no2)cc1Cl` (centres unmarked) [Example 227, 2-[(2,5-dichloro-4-{3-[8-chloro-6-(trifluoromethyl)imidazo[1,2-a]pyridin-2-yl]-1,2,4-oxadiazol-5-yl}phenyl)oxy]propan-1-ol] yielded an EC50 of no more than 100 nM.
